As a reminder, the EC50 is the concentration that produces a half-maximal response. What is called IC50 is the midpoint of a concentration-inhibition curve. Read a high IC50 as lower potency.

In assay [1] the test system is TNFα. Kind of assay: IRAK4 Monocyte TNFα Cell Based Assay. The settings on record: cryopreserved human monocytes, LPS 50 pg/ml stimulation, TNFα by TR-FRET. As for the experimental part:
The cell suspension was then plated at a density of 5,000 cells/well onto black 384 well Greiner clear bottom plates. Plates were pre-spotted with test compounds and serially diluted in DMSO where 40 nL/well were delivered using the Echo 550 acoustic liquid dispenser (Labcyte®) for a final DMSO concentration of 0.1%. Plated cells were treated with compound for 1 hour at 37° C. Cells were then stimulated with 50 pg/ml of LPS (Sigma) excluding outside columns of plate used for unstimulated cell control wells. Cells were incubated for an additional 4 hours at 37° C. Cells were then spun out of the media and 5 μl of sample were taken and analyzed for total TNFα content using the TR-FRET Human TNFα detection system (CisBio). This system utilizes two labeled antibodies (cryptate and XL665) that bind to two different epitopes of the TNFα molecule and produce FRET signal proportional to the concentration of TNFα in the sample. Detection antibodies are mixed 50:50 and 5 μL were dispensed into each well. Plates were covered with clear seals and incubated at room temp overnight. The following morning plates were read using an Envision 2103 Multilabeled reader (PerkinElmer) with excitation/emission/FRET emission at 340 nm/615 nm/665 nm, respectively. Fluorescence intensities at 615 nm and 665 nm emission wavelengths were expressed as a ratio (665 nm/615 nm). Percent of control was calculated as follows: % Control=100×(RatioSample−Ratio0% stimulation)/(Ratio100% Stimulation−Ratio0% stimulation) where unstimulated cells (0% stimulation) were the negative control and stimulated cells (100% stimulation) were used as the positive control.
On the technique in general: In TR-FRET formats the signal depends on donor and acceptor labels being close together.

Assay [2] concerns the target IRAK4 enzyme (Homo sapiens (Human), UniProt Q9NWZ3). In words: IRAK4 Biochemical Assay (TR-FRET/HTRF). To be noted: 0.75 nM IRAK4, 500 μM ATP, STK1 peptide. As to the method:
IRAK4 enzyme (Carna Biosciences, Chuo-ku, Kobe, Japan) activity was measured by detecting phosphorylated peptide substrate formation using an antibody against the phosphorylated peptide substrate. This is a time-resolved fluorescence resonance energy transfer (TR-FRET) immunoassay, based on the STK1 KinEASE Assay (Cisbio, Bedford, Mass.). The assay was designed as a simple two-step, endpoint assay (a 5 μl enzyme reaction followed by 5 μl stop and detect Solution) performed in ProxiPlate-384 Plus plates (Perkin Elmer, Waltham, Mass.). Staurosporine, a non-selective kinase inhibitor was used as a positive control. Compounds diluted in DMSO were spotted into 384 well plates using a Labcyte® Echo 550 Liquid Handling System prior to addition of IRAK4 enzyme and peptide substrate. Reaction solutions were delivered using a Multi-Flo (Bio-Tek Instruments). The enzyme and peptide solution was incubated with compound for 15 minutes at room temp before the reaction was initiated by the addition of ATP. The standard 5 μl reaction mixture contained 500 μM ATP, 2 μM peptide (STK1 Peptide), 0.75 nM of IRAK4 in reaction buffer (50 mM HEPES, pH 7.0, 0.02% NaN3, 0.01% BSA, 0.1 mM Orthovanadate, 5 mM MgCl2, 0.025% NP-40, 1 mM DTT). After 120 min of incubation at room temperature, 5 μl of Stop and Detect Solution (1:100 Cryptate labeled anti-phosphorylated peptide antibody solution and 125 nM Tracer in a 50 mM HEPES pH 7.0 detection buffer containing sufficient EDTA) was added. The plate was then further incubated for 60 minutes at room temperature and read on Envision 2103 Multilabeled reader (PerkinElmer) with excitation/emission/FRET emission at 340 nm/615 nm/665 nm, respectively. Fluorescence intensities at 615 nm and 665 nm emission wavelengths were expressed as a ratio (665 nm/615 nm). Percentage of inhibition was calculated as below: % Inhibition=100×(RatioSample−Ratio0% Inhibition)/(Ratio100% Inhibition−Ratio0% Inhibition)
The 0% inhibition value comes from control wells lacking inhibitor. The 100% inhibition value comes from control wells containing a saturating amount of known inhibitor staurosporine.

IRAK4 enzyme, sequence (Q9NWZ3 whole entry): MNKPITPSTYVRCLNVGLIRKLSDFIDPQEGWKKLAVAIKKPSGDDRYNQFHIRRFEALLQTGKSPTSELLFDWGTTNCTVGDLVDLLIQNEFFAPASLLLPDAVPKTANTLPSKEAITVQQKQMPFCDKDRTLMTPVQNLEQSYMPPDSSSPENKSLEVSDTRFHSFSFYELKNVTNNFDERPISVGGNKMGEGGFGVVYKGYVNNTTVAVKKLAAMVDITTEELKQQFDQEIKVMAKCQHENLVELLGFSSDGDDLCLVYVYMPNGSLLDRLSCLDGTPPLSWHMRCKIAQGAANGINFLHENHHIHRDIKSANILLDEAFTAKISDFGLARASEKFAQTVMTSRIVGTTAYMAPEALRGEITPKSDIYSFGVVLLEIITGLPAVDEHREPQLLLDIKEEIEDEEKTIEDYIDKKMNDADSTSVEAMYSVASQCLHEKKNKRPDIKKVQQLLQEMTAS

Turning to “7-(4-(isopropylamino)-5-(1-propyl-1H-1,2,3-triazol-4-yl)pyridin-2-yl)pyrrolo[1,2-b]pyridazine-3-carbonitrile [Compound 54]”, in assay [1], the EC50 was determined as 0.09 µM. In assay [2], the IC50 stood at 0.001 µM. In turn, `C[C@H](C#N)Nc1cc(-c2ccc3cc(C#N)cnn23)ncc1-c1cn(C[C@@H](F)C(C)(C)O)nn1` [Compound 1, 7-(4-(((R)-1-cyanoethyl)amino)-5-(1-((R)-2-fluoro-3-hydroxy-3-methylbutyl)-1H-1,2,3-triazol-4-yl)pyridin-2-yl)pyrrolo[1,2-b]pyridazine-3-carbonitrile] showed an EC50 in assay [1] (Monocyte) of 0.012 µM. This molecule gave an IC50 in assay [2] below 0.001 µM. For `CC(C)(O)[C@H](F)Cn1cc(-c2cnc(-c3ccc4cc(C#N)cnn34)cc2NCC#N)nn1` [Compound 2, (R)-7-(4-((cyanomethyl)amino)-5-(1-(2-fluoro-3-hydroxy-3-methylbutyl)-1H-1,2,3-triazol-4-yl)pyridin-2-yl)pyrrolo[1,2-b]pyridazine-3-carbonitrile] the same measures were 0.015 µM and 0.001 µM. Consider `CC(C)(O)[C@H](F)Cn1cc(-c2cnc(-c3ccc4cc(C#N)cnn34)cc2N[C@H]2CC[C@H](c3nnc(C(F)F)o3)CC2)nn1` [Compound 3, 7-(4-(((1r,4R)-4-(5-(difluoromethyl)-1,3,4-oxadiazol-2-yl)cyclohexyl)amino)-5-(1-((R)-2-fluoro-3-hydroxy-3-methylbutyl)-1H-1,2,3-triazol-4-yl)pyridin-2-yl)pyrrolo[1,2-b]pyridazine-3-carbonitrile], for which a half-maximal response in assay [1] (EC50) required 0.02 µM. The same molecule came in with a 50% inhibitory concentration (IC50) in assay [2] of 0.002 µM.

Consider `COC(=O)NC[C@H]1C[C@H](Nc2cc(-c3ccc4cc(C#N)cnn34)ncc2-c2cn(C(F)F)nn2)C1` [Compound 4, methyl (((1r,3r)-3-((2-(3-cyanopyrrolo[1,2-b]pyridazin-7-yl)-5-(1-(difluoromethyl)-1H-1,2,3-triazol-4-yl)pyridin-4-yl)amino)cyclobutyl)methyl)carbamate], for which it took 0.13 µM to reach a half-maximal effect in assay [1] (EC50). In assay [2], the IC50 turned out to be 0.002 µM. Turning to `COC(=O)NC[C@H]1C[C@H](Nc2cc(-c3ccc4cc(C#N)cnn34)ncc2-c2nnn(C[C@@H](F)C(C)(C)O)c2F)C1` [Compound 5, methyl (((1R,3r)-3-((2-(3-cyanopyrrolo[1,2-b]pyridazin-7-yl)-5-(5-fluoro-1-((R)-2-fluoro-3-hydroxy-3-methylbutyl)-1H-1,2,3-triazol-4-yl)pyridin-4-yl)amino)cyclobutyl)methyl)carbamate], a half-maximal effect in assay [1] (EC50) was put at 0.145 µM. The IC50 in assay [2] came to 0.003 µM. On the same counts, the results for `COC(=O)NCC1CC(Nc2cc(-c3ccc4cc(C#N)cnn34)ncc2-c2cn(CC3CC(O)C3)nn2)C1` [Compound 6, methyl (((1R,3r)-3-((2-(3-cyanopyrrolo[1,2-b]pyridazin-7-yl)-5-(1-(((1r,3R)-3-hydroxycyclobutyl)methyl)-1H-1,2,3-triazol-4-yl)pyridin-4-yl)amino)cyclobutyl)methyl)carbamate] are 0.019 µM and below 0.001 µM. For `COC(=O)NCC1CC(Nc2cc(-c3ccc4cc(C#N)cnn34)ncc2-c2cn(C3CC(O)C3)nn2)C1` [Compound 7, methyl (((1R,3r)-3-((2-(3-cyanopyrrolo[1,2-b]pyridazin-7-yl)-5-(1-((1r,3R)-3-hydroxycyclobutyl)-1H-1,2,3-triazol-4-yl)pyridin-4-yl)amino)cyclobutyl)methyl)carbamate] the same measures were 0.012 µM and below 0.001 µM. On the same counts, the results for `COC(=O)NCC1CC(Nc2cc(-c3ccc4cc(C#N)cnn34)ncc2-c2cn(CC3CC(O)C3)nn2)C1` [Compound 8, methyl (((1R,3r)-3-((2-(3-cyanopyrrolo[1,2-b]pyridazin-7-yl)-5-(1-(((1s,3S)-3-hydroxycyclobutyl)methyl)-1H-1,2,3-triazol-4-yl)pyridin-4-yl)amino)cyclobutyl)methyl)carbamate] are 0.017 µM and below 0.001 µM. The molecule `COC(=O)NCC1CC(Nc2cc(-c3ccc4cc(C#N)cnn34)ncc2-c2cn(C3CC(CO)C3)nn2)C1` [Compound 9, methyl (((1R,3r)-3-((2-(3-cyanopyrrolo[1,2-b]pyridazin-7-yl)-5-(1-((1r,3R)-3-(hydroxymethyl)cyclobutyl)-1H-1,2,3-triazol-4-yl)pyridin-4-yl)amino)cyclobutyl)methyl)carbamate] gave an EC50 in assay [1] of 0.016 µM. For the same molecule, the half-inhibitory concentration (IC50) in assay [2] is below 0.001 µM.

`COC(=O)NCC1CC(Nc2cc(-c3ccc4cc(C#N)cnn34)ncc2-c2cn(C3CC(CNC(=O)OC)C3)nn2)C1` [Compound 10, methyl (((1R,3r)-3-((2-(3-cyanopyrrolo[1,2-b]pyridazin-7-yl)-5-(1-((1r,3R)-3-(((methoxycarbonyl)amino)methyl)cyclobutyl)-1H-1,2,3-triazol-4-yl)pyridin-4-yl)amino)cyclobutyl)methyl)carbamate]: it took 0.02 µM to reach a half-maximal effect in assay [1] (EC50). The same molecule showed an IC50 in assay [2] of 0.001 µM.

In the case of `CC(C)(O)CCn1cc(-c2cnc(-c3ccc4cc(C#N)cnn34)cc2NC2COC2)nn1` [Compound 11, 7-(5-(1-(3-hydroxy-3-methylbutyl)-1H-1,2,3-triazol-4-yl)-4-(oxetan-3-ylamino)pyridin-2-yl)pyrrolo[1,2-b]pyridazine-3-carbonitrile], in assay [1] (Monocyte), a half-maximal effect (EC50) was put at 0.028 µM. In other words, the double-digit nanomolar range.

As for `Cn1cc(-c2cnc(-c3ccc4cc(C#N)cnn34)cc2N[C@H]2CCC[C@@H](O)C2)nn1` [Compound 12, 7-(4-(((1S,3R)-3-hydroxycyclohexyl)amino)-5-(1-methyl-1H-1,2,3-triazol-4-yl)pyridin-2-yl)pyrrolo[1,2-b]pyridazine-3-carbonitrile], the EC50 in assay [1] (Monocyte) is 0.03 µM. In addition, the midpoint of inhibition in assay [2], the IC50, lay at 0.001 µM. For `CC(C)(O)[C@H](F)Cn1cc(-c2cnc(-c3ccc4cc(C#N)cnn34)cc2N[C@H]2CCC[C@@H](O)C2)nn1` [Compound 13, 7-(5-(1-((R)-2-fluoro-3-hydroxy-3-methylbutyl)-1H-1,2,3-triazol-4-yl)-4-(((1S,3R)-3-hydroxycyclohexyl)amino)pyridin-2-yl)pyrrolo[1,2-b]pyridazine-3-carbonitrile] the same measures were 0.005 µM and below 0.001 µM. Molecule `COC(=O)NC[C@H]1C[C@H](Nc2cc(-c3ccc4cc(C#N)cnn34)ncc2-c2cn([C@H]3CC[C@H](NC(=O)N4CCOCC4)CC3)nn2)C1` [Compound 17, methyl (((1R,3r)-3-((2-(3-cyanopyrrolo[1,2-b]pyridazin-7-yl)-5-(1-((1r,4R)-4-(morpholine-4-carboxamido)cyclohexyl)-1H-1,2,3-triazol-4-yl)pyridin-4-yl)amino)cyclobutyl)methyl)carbamate] came in with a concentration giving a half-maximal response (EC50) in assay [1] (Monocyte) of 0.005 µM. In turn, `CNc1cc(-c2ccc3cc(C#N)cnn23)ncc1-c1cn([C@H]2CC[C@H](NC(=O)OC(C)(C)C)CC2)nn1` [Compound 23, tert-butyl ((1r,4r)-4-(4-(6-(3-cyanopyrrolo[1,2-b]pyridazin-7-yl)-4-(methylamino)pyridin-3-yl)-1H-1,2,3-triazol-1-yl)cyclohexyl)carbamate] gave an IC50 in assay [2] of 0.016 µM. This counts as double-digit nanomolar. For `CC(C)Nc1cc(-c2ccc3cc(C#N)cnn23)ncc1-n1cc(CCC(C)(C)O)nn1` [Compound 62, 7-(5-(4-(3-hydroxy-3-methylbutyl)-1H-1,2,3-triazol-1-yl)-4-(isopropylamino)pyridin-2-yl)pyrrolo[1,2-b]pyridazine-3-carbonitrile], a half-maximal effect in assay [1] (Monocyte) (EC50) was put at 0.031 µM.

The molecule `CC(=O)N1CCC(c2cn(-c3cnc(-c4ccc5cc(C#N)cnn45)cc3NC(C)C)nn2)CC1` [Compound 63, 7-(5-(4-(1-acetylpiperidin-4-yl)-1H-1,2,3-triazol-1-yl)-4-(isopropylamino)pyridin-2-yl)pyrrolo[1,2-b]pyridazine-3-carbonitrile] came in with a 50% effective concentration (EC50) in assay [1] (Monocyte) of 0.148 µM.

Source of the values: patent publication US11053250B2, “Pyrrolo[1,2-b]pyridazine derivatives” (Gilead Sciences, Inc., priority 2018, dated 2021).
